Test results as given in ChEMBL document CHEMBL1955836, “Isolation and identification of antibacterial neo-compounds from the red ants of ChangBai Mountain, Tetramorium sp” (2012).
Converted amounts (≈) assume the structure as drawn. The source made the active and inactive calls. The rule behind the calls is not given here.

Tests used:
Bacillus subtilis [1] = assay: Antibacterial activity against Bacillus subtilis ATCC 6633 assessed as inhibition zone at 25 ug/mL by Kirby Bauer paper diffusion method; format: functional; details: read-out: DIZ
Bacillus subtilis [2] = assay: Antibacterial activity against Bacillus subtilis ATCC 6633 by Kirby Bauer paper diffusion method; format: functional
Escherichia coli = assay: Antibacterial activity against Escherichia coli O157:H7 by Kirby Bauer paper diffusion method; format: functional, organism-based
Bacillus subtilis [3] = assay: Antibacterial activity against Bacillus subtilis ATCC 6633 assessed as inhibition zone at 10 ug/mL by Kirby Bauer paper diffusion method; format: functional; details: read-out: DIZ
Bacillus subtilis [4] = assay: Antibacterial activity against Bacillus subtilis ATCC 6633 assessed as inhibition zone at 15 ug/mL by Kirby Bauer paper diffusion method; format: functional; details: read-out: DIZ

Row | Compound | zone of inhibition at 25 µg/mL (Bacillus subtilis [1]) | MIC (Bacillus subtilis [2]) | Activity (Escherichia coli) | zone of inhibition at 10 µg/mL (Bacillus subtilis [3]) | zone of inhibition at 15 µg/mL (Bacillus subtilis [4])
1 | O=C1C[C@]2(C=Cc3c(c4ccccc4oc3=O)O2)CN1 | 5 mm | 25 µg/mL (≈ 92.8 µM) | inactive | – | –
2 | O=C(Nc1ccccc1)c1cc(O)c(O)c(O)c1 | 0 mm | 25 µg/mL (≈ 102 µM) | inactive | – | –
3 | Cc1c2oc(=O)ccc2cc2c(O)c(C(C)(C)O)oc12 | 4 mm | 25 µg/mL (≈ 91.2 µM) | inactive | – | –
4 | CC1(C)S[C@@H]2[C@H](NC(=O)Cc3ccccc3)C(=O)N2[C@H]1C(=O)[O-].[K+] [PENICILLIN G POTASSIUM] | – | 10 µg/mL | – | 16 mm | 20 mm
5 | C#Cc1ccc(-c2c(C=O)c3ccccc3oc2=O)cc1 | 5 mm | 25 µg/mL (≈ 91.1 µM) | inactive | – | –
6 | O=C(NCCO)c1ccccc1 | – | 15 µg/mL (≈ 90.8 µM) | inactive | – | 7 mm
